From patent publication US20080051429A1, “USE OF 4-AMINO-PIPERIDINES FOR TREATING SLEEP DISORDERS” (priority 2006, published 2008)

Experiments:
Assay in all cases: R-SAT broad profiling
Assay type in all cases: cell-based
m4 = target: T1, m4 (Homo sapiens, UniProt P08173); settings: agonist; read-out: pEC50 or pIC50 (converted)
T1 construct: expressed in transfected cells; host or cells: NIH3T3
T1 sequence (P08173 1-479): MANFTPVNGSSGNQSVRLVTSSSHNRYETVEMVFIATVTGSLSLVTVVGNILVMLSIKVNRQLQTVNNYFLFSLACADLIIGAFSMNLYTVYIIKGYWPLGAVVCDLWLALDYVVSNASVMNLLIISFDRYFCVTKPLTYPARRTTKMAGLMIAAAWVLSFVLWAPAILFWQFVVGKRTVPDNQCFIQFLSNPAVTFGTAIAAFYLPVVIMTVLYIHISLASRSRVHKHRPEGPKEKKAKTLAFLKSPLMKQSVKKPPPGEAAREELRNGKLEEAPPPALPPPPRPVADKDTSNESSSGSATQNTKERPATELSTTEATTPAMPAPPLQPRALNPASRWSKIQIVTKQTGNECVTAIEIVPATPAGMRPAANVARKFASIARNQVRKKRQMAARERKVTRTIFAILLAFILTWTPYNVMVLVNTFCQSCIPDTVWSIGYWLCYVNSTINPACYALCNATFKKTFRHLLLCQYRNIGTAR
Method: (§1) The functional receptor assay, Receptor Selection and Amplification Technology (R-SAT), was used (with minor modifications from that previously described U.S. Pat. No. 5,707,798) to screen compounds for efficacy at the 5-HT2A receptor. Briefly, NIH3T3 cells were grown in 96 well tissue culture plates to 70-80% confluence. Cells were transfected for 12-16 hours with plasmid DNAs using superfect (Qiagen Inc.) as per manufacture's protocols. R-SAT's were generally performed with 50 ng/well of receptor and 20 ng/well of Beta-galactosidase plasmid DNA. All receptor and G-protein constructs used were in the pSI mammalian expression vector (Promega Inc) as described in U.S. Pat. No. 5,707,798. The 5HT2A receptor gene was amplified by nested PCR from brain cDNA using the oligodeoxynucleotides based on the published sequence (see Saltzman et. al. Biochem. Biophys. Res. Comm. 181:1469-78 (1991)). Large-scale transfections, cells were transfected for 12-16 hours, then trypsinized and frozen in DMSO. Frozen cells were later thawed, plated at 10,000-40,000 cells per well of a 96 well plate that contained drug. With both methods, cells were then grown in a humidified atmosphere with 5% ambient CO2 for five days. Media was then removed from the plates and marker gene activity was measured by the addition of the beta-galactosidase substrate ONPG (in PBS with 5% NP-40). The resulting colorimetric reaction was measured in a spectrophotometric plate reader (Titertek Inc.)at […]. All data were analyzed using the computer program XLFit (IDBSm). Efficacy is the percent maximal repression compared to repression by a control compound (ritanserin in the case of 5HT2A). pIC50 is the negative of the log(IC50), where IC50 is the calculated concentration in Molar that produces 50% maximal repression.
(§2) The R-SAT assay (described above in example 289) was used to investigate the selectivity of 4-(4-Fluoro-benzyl)-3-(4-isobutoxy-benzyl)-8-methyl-1-oxa-3,8-diaza-spiro[4.5]decan-2-one.

D1 = target: T2, D1 (Homo sapiens, UniProt P21728); settings: read-out: pEC50 or pIC50 (converted)
T2 construct: expressed in transfected cells; host or cells: NIH3T3
Method: as §1, §2

alpha 2B = target: T3, alpha 2B (Homo sapiens, UniProt P18089); settings: read-out: pEC50 or pIC50 (converted)
T3 construct: expressed in transfected cells; host or cells: NIH3T3
T3 sequence (P18089 1-450): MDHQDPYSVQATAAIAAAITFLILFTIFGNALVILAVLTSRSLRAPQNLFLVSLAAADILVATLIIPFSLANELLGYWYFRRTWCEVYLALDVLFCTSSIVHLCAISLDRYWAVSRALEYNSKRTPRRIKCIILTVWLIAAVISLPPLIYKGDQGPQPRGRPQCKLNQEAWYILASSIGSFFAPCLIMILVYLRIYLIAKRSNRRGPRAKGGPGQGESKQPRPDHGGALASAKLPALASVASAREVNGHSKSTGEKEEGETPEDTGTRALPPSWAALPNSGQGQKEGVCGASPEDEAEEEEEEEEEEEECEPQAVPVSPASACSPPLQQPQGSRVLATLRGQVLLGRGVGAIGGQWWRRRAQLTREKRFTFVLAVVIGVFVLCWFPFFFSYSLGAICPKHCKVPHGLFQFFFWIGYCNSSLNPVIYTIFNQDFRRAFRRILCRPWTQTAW
Method: as §1, §2

m3 = target: T4, m3 (Homo sapiens, UniProt P20309); settings: read-out: pEC50 or pIC50 (converted)
T4 construct: expressed in transfected cells; host or cells: NIH3T3
Method: as §1, §2

D3 = target: T5, D3 (Homo sapiens, UniProt P35462); settings: read-out: pEC50 or pIC50 (converted)
T5 construct: expressed in transfected cells; host or cells: NIH3T3
Method: as §1, §2

5HT1D = 5HT1D (Homo sapiens, UniProt P28221); parameters: expressed in transfected cells; settings: read-out: pEC50/pIC50 (converted)
Method: as §1
(§3) The R-SAT assay (described above in example 136) was used to investigate the selectivity of 2-(4-Methoxyphenyl)-N-(4-methylbenzyl)-N-(1-methylpiperidin-4-yl)acetamide hydrochloride.

5HT1F = target: T6, 5HT1F (Homo sapiens, UniProt P30939); parameters: expressed in transfected cells; settings: read-out: pEC50/pIC50 (converted)
T6 sequence (P30939 1-366): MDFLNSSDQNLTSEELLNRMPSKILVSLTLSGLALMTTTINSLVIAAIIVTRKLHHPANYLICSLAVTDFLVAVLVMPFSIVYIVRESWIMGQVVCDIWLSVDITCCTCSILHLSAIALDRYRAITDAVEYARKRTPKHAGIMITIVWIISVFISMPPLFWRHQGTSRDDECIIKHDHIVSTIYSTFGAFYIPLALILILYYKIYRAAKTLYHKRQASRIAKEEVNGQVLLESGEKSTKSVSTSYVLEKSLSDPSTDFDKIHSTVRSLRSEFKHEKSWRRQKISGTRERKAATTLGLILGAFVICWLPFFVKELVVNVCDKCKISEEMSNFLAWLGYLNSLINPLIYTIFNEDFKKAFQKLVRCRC
Method: as §1, §3

T2 sequence (P21728 whole entry): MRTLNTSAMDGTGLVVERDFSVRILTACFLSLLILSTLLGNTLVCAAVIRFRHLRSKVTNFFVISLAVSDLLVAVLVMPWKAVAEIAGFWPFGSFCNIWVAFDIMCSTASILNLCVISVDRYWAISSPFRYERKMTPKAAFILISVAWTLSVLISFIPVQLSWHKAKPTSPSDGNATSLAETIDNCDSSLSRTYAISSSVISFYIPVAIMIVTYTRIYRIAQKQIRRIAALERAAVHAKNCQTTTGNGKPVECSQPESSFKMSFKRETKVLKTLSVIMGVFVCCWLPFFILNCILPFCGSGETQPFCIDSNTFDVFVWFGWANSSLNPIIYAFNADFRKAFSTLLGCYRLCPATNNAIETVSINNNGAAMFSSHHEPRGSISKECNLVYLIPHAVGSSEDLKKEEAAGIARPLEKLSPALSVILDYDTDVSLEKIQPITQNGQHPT
T4 sequence (P20309 whole entry): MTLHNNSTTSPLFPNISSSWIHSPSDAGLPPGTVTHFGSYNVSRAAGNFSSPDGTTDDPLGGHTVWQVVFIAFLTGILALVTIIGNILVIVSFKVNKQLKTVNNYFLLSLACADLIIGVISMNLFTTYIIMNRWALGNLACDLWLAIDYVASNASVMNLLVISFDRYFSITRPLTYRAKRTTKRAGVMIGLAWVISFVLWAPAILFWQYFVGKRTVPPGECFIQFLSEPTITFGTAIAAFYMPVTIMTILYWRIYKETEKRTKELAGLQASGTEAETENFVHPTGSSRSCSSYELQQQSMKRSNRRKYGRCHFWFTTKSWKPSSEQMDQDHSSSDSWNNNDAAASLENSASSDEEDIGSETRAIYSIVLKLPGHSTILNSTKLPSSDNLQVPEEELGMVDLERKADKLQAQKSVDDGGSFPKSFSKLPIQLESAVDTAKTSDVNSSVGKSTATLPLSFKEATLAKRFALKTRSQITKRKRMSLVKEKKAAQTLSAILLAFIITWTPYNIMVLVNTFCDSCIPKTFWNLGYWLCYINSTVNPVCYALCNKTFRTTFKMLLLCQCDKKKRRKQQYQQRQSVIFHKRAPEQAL
T5 sequence (P35462 whole entry): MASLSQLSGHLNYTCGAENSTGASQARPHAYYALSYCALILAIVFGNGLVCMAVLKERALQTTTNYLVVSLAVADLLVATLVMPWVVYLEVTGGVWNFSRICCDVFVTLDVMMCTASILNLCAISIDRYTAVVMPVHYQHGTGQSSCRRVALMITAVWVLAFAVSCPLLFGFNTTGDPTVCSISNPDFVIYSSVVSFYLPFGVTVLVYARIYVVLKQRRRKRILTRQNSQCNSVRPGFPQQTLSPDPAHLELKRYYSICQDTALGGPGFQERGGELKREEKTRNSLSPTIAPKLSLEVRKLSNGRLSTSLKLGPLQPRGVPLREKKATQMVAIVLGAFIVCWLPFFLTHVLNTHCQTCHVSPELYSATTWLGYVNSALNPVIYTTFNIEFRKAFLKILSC
Chain of 5HT1D (P28221 whole entry, species assumed): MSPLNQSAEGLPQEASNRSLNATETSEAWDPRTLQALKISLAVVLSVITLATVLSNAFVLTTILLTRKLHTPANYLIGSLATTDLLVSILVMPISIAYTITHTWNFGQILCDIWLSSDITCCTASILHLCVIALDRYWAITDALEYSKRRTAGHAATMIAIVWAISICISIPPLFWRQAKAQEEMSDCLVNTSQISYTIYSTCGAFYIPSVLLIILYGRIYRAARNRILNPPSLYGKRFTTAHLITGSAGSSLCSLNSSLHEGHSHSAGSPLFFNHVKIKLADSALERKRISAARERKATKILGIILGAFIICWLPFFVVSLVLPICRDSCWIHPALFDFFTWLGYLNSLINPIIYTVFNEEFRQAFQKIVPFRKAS

CC(C)COc1ccc(CN2C(=O)OC3(CCN(C)CC3)C2Cc2ccc(F)cc2)cc1.Cl (racemic) [Example 69NLS75, 4-(4-Fluorobenzyl)-3-(4-isobutoxybenzyl)-8-methyl-1-oxa-3,8-diazaspiro[4.5]decan-2-one, hydrochloride]
> 3.16 µM: EC50 (m4) | EC50 (D1; agonist) | IC50 (D1; antagonist) | EC50 (alpha 2B; agonist) | IC50 (alpha 2B; antagonist) | EC50 (m3; agonist) | IC50 (m3; inverse) | EC50 (D3; agonist) | IC50 (D3; antagonist)

COc1ccc(CC(=O)N(Cc2ccc(C)cc2)C2CCN(C)CC2)cc1 [Example 50ELH27, 2-(4-Methoxyphenyl)-N-(4-methylbenzyl)-N-(1-methylpiperidin-4-yl)acetamide]
> 3.16 µM: EC50 (5HT1D; agonist) | IC50 (5HT1D; antagonist) | EC50 (5HT1F; agonist) | IC50 (5HT1F; antagonist)
